Data taken from ChEMBL document CHEMBL5329193, “Targeting Mycobacterium tuberculosis iron-scavenging tools: a recent update on siderophores inhibitors” (RSC Med Chem, 2023).
pIC50: −log10 of the molar value. Values after ≈ are worked out from the molar mass of the structure shown.

What was measured:
[1] = tested on: Mycobacterium tuberculosis variant bovis; experiment: Antimycobacterial activity against Mycobacterium bovis BCG ATCC 35734 assessed as inhibition of bacterial growth incubated for 5 days by broth microdilution method; assay type: functional, organism-based; settings: BCG ATCC 35734, 120 h
[2] = tested on: Mycobacterium tuberculosis variant bovis; experiment: Antimycobacterial activity against Mycobacterium bovis BCG assessed as reduction in microbial growth incubated for 15 days by resazurin based reduction assay; assay type: functional; settings: 360 h, time 15 day
[3] = tested on: Mycobacterium tuberculosis variant bovis; experiment: Antitubercular activity against Mycobacterium bovis BCG assessed as bacterial growth inhibition incubated for 15 days by resazurin based reduction assay; assay type: functional; settings: 360 h, time 15 day

| Compound | pIC50 [1] | MIC99 [2] [µM] | MIC99 [3] [µM] |
| --- | --- | --- | --- |
| N#Cc1cc(OCCOc2ccccc2)cc(-c2ccc(C(=O)O)o2)c1 | 4.92 | 63 |  |
| N#Cc1cc(-c2ccc(C(=O)O)o2)cc(C(F)(F)F)c1 |  |  | 125 (≈ 35.1 µg/mL) |
